Experimental data published in patent US7122173B2, “Agent for the treatment of bladder irritative symptoms accompanied by benign prostatic hyperplasia” (Kyowa Hakko Kogyo Co., Ltd., priority 2001, dated 2006).

How the values were obtained:
dd male mice = conditions: mouse, in vivo, po, 7 day
Method: The test compound was administered orally or intraperitoneally to 3 animals per group of dd male mice (body weight, 20±1 g). Minimum lethal dose (MLD) value was obtained by observing mortality on the 7th day after the administration.

[1] = system: rats with partial urethra obstruction; assay: Increased urinary frequency accompanied by partial bladder outlet obstruction (metabolism cage urination test); format: in vivo, rat
Method: The test was carried out in accordance with the method of Saito et al. (J. Urol., 150: 1045–1051 (1993)). Male SD rats of 8 to 9 weeks of age (supplied by Japan SLC) were used in the test. Five to seven animals of these rats were put in each metal cage and reared by allowing them to freely take commercially available chow and water, in a rearing room at a room temperature of from 19 to 25° C. and a humidity of from 30 to 70% under illumination for 12 hours (from 7 a.m. to 7 p.m.) per day. Partial urethra obstruction was induced in rats as a model of outlet obstruction mimicking BPH. Each rat was anesthetized by intraperitoneal administration of 50 mg/kg of pentobarbital sodium (Dainippon Pharmaceutical) and placed in dorsal position. The abdomen was cut in a length of about 1 cm by midline incision to expose the bladder, prostate and the urethra. The bladder neck and bladder base were peeled from the prostate, and two surgical sutures (No. 3, Natsume Seisakusho) were passed behind the urethra base. A polyethylene tube (PE-200; Becton Dickinson) was placed along the urethra, and the urethra was mildly double-ligated together with the tube. The ligation was carried out in such a manner that the urethra was not pressed by the polyethylene tube and the sutures were not loosened. The polyethylene tube was pulled out and the urethra was partially obstructed. The incised part of the abdomen was sutured with the surgical suture. Five to seven days after the partial urethra constriction operation, the rats subjected to partial urethra obstruction and those subjected to sham-operation were put in metabolism cages (KN-649, Natsume Seisakusho). For acclimatization, rats were reared for 1 day with free drinking and feeding, and the urination test was started on the next day. Using an electronic force balance (HF-200; A and D), the amount of urination by rats was continuously measured as weight, and -recorded on a thermal array recorder (RTA-1200; Nihon Kohden) via a direct current amplifier (AD-641G; Nihon Kohden). The light period (9 to 18 o'clock) under illumination and the dark period (19 to 4 o'clock) under lights off were used as the data collecting periods, and the number of micturition and the urinary volume during these periods were measured to calculate urinary frequency (frequency of micturition per 9 hours), voided volume per micturition and total urine volume as the measuring parameters. In this case, the voided volume per micturition was calculated by dividing the total urine volume per 9 hours by the urinary frequency per 9 hours. Compound 1 or a solvent (0.5 w/v % aqueous methyl cellulose 400 cP (average viscosity: 400 centipoises) solution) was administered twice on the next day between 8 to 9 o'clock and 18 to 19 o'clock, and the number of micturition and urine volume during 9 to 18 o'clock and 19 to 4 o'clock were measured to obtain measured values similarly to the case of the previous day. In the sham-operation group, the urinary frequency, voided volume per micturition and the total urine volume on the first day of the urination test were compared with those in the urethra obstruction group. The urinary frequency, voided volume per micturition and the total urine volume in each group were calculated as average ±standard error.

DRG cells = assay: Current clamp, changes in membrane potential in DRG cells; format: cell-based, rat; conditions: control (0 mol/L) −47.95 ± 0.22
Method: Experiments were performed on adult female Sprague Dawley rats. A […] population of DRG neurons that innervate the urinary bladder were labeled by retrograde axonal transport of the fluorescent dye, Fast Blue (4% w/v) (Polyloy, Gross Umstadt, Germany) injected into the wall of the bladder in halothane-anesthetized animals 7 days before the dissociation. The dye was injected with a 28 gauge needle at three to six sites on the dorsal surface of the organ (5–6 μL per site, total volume of 20–30 μL). Each injection site was washed with saline to minimize contamination of adjacent organs with the dye.
Freshly dissociated neurons from DRG were prepared from halothane-anesthetized animals. L6 and S1 DRG were dissected from animals and then dissociated in a shaking bath for 25 minutes at 35° C. with 5 mL DMEM (Sigma) containing 0.3 mg/mL trypsin (Type 3, Sigma), 1 mg/mL collagenase (Type 1, Sigma), and 0.1 mg/ML deoxyribonuclease (Type 4, Sigma). Trypsin inhibitor (Type 2a, Sigma) was then added thereto to neutralize the activity of trypsin. Individual DRG cell bodies were isolated by trituration and then plated on a poly-L-lysine-coated 35 mm Petri dishes.
Dye-labeled primary afferent neurons that innervate the urinary bladder were identified using an inverted phase-contrast microscope (Nikon, Tokyo, Japan) with fluorescent attachments (UV-1A filter; excitation wavelength, 365 nm). Gigaohm-seal whole-cell recordings were performed within 6–8 hours after cell dissociation at room temperature (20–22° C.) on each labeled neuron in a culture dish that usually contained three to seven labeled cells among a few hundred unlabeled neurons. The internal solution contained (in mmol/L): KCl 140, CaCl2 1, MgCl2 2, EGTA 11, HEPES 10, Mg-ATP 2, and Tris-GTP 0.4 adjusted to pH 7.4 with KOH. Patch electrodes had resistances of 1–4 M Ω when filled with the internal solution. Neurons were superfused at a flow rate of 1.5 mL/minutes with an external solution containing (in mmol/L): NaCl 150, KCl 5, CaCl2 2.5, MgCl2 1, HEPES 10, and D-glucose 10, adjusted to pH 7.4 with NaOH. All recordings were made with an Axopatch-1D patch-clamp amplifier (Axon Instruments, Foster City, Calif.), and data were acquired and analyzed by PCLAMP software (Axon Instruments).
In current-clamp recordings, membrane potential of DRG cell were measured before and after compound applications. The membrane potentials were normalized to control (before addition of the compound).

[2] = Dark period (active period), after administration
[3] = Dark period (active period), before administration (baseline of the Compound 1 group)
[4] = Light period (inactive period), after administration
[5] = Light period (inactive period), before administration (baseline of the Compound 1 group)
[6] = rats with partial urethra obstruction

C[C@](O)(C(=O)Nc1cccc2c1C(=O)c1sccc1CS2(=O)=O)C(F)(F)F [Compound 1, (S)-(+)-N-(5,5-dioxido-10-oxo-4,10-dihydrothieno[3,2-c][1]benzothiepin-9-yl)-3,3,3-trifluoro-2-hydroxy-2-methylpropanamide]
Minimum lethal dose (MLD) (dd male mice): > 1,000 mg/kg
Total urine volume [1, 2]: 4.83 ± 0.83 mL/9 h
Urinary frequency [1, 2]: 6.7 ± 1.2 micturitions/9 h
Voided volume per micturition [1, 2]: 0.771 ± 0.160 mL
Total urine volume [1, 3]: 3.57 ± 0.57 mL/9 h
Urinary frequency [1, 3]: 10.0 ± 1.3 micturitions/9 h
Voided volume per micturition [1, 3]: 0.362 ± 0.038 mL
Total urine volume [1, 4]: 4.76 ± 0.78 mL/9 h
Urinary frequency [1, 4]: 5.3 ± 0.4 micturitions/9 h
Voided volume per micturition [1, 4]: 0.899 ± 0.127 mL
Total urine volume [1, 5]: 4.80 ± 0.31 mL/9 h
Urinary frequency [1, 5]: 8.7 ± 0.8 micturitions/9 h
Voided volume per micturition [1, 5]: 0.577 ± 0.064 mL
Effect on urinary frequency (in words) [1, 6]: significantly reduced urinary frequency
Effect on voided volume per micturition (in words) [1, 6]: tended to increase voided volume per micturition
Membrane potential (DRG cells; Compound 1 1.0 × 10^−6 mol/L): −53.67 ± 0.74 mV
Membrane potential (DRG cells; Compound 1 1.0 × 10^−7 mol/L): −57.17 ± 0.53 mV
Membrane potential (DRG cells; Compound 1 1.0 × 10^−8 mol/L): −49.80 ± 0.65 mV
Membrane potential (DRG cells; Compound 1 1.0 × 10^−9 mol/L): −48.10 ± 0.48 mV
Membrane potential (DRG cells; Compound 1 5.0 × 10^−4 mol/L): −42.67 ± 1.46 mV
Membrane potential (DRG cells; Compound 1 5.0 × 10^−5 mol/L): −48.50 ± 1.28 mV
Membrane potential (DRG cells; Compound 1 5.0 × 10^−6 mol/L): −50.50 ± 0.88 mV
